# According to US12606541B2, “PPARg modulators and methods of use” (Eisai R&D Management Co., Ltd., priority 2020, dated 2026):
# Target: T1, His6-TEV-PPARγ-(234-505) (Homo sapiens, UniProt P37231)
# T1 construct: The His6-TEV-PPARγ-(234-505) protein for assay was expressed and purified; TEV cleavage site (N); made in house
# T1 sequence (P37231 234-505): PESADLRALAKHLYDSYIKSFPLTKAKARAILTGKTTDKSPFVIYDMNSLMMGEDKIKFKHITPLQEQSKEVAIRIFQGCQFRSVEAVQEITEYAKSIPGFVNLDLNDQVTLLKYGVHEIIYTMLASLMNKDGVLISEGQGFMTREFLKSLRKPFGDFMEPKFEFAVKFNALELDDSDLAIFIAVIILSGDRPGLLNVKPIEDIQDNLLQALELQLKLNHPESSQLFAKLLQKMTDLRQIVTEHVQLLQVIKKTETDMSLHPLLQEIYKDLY
# Assay: TR-FRET Assay to Measure Co-R Peptide Recruitment to PPARγ
# Format: biochemical
# Settings: Co-R peptide (SMRT-ID2) recruitment; top final concentration 20 μM; read-out: TR-FRET i-Ag; AC50
# Outline: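 Corepressor recruitment is measured by adding terbium-labeled anti-His antibody and FITC SMRT-ID2 peptide, at 5 and 200 nM final, after a 20-minute room-temperature protein–compound incubation. After one further hour, signal is converted to percent response between DMSO and 500 nM T0070907 wells.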
row,AC50,SMILES
1,20 nM,"COc1cc(-c2cc(C(=O)N3C(C)CC(C(=O)NCc4cccc(Cl)c4)CC3C)n[nH]2)c(Cl)cn1 (mixture of isomers) [Example 274, 1-(5-(5-chloro-2-methoxypyridin-4-yl)-1H-pyrazole-3-carbonyl)-N-(3-chlorobenzyl)-2,6-dimethylpiperidine-4-carboxamide]"

# Same assay, conditions: Co-R peptide recruitment to PPARγ; read-out: TR-FRET AC50
row,SMILES,AC50
1,O=C(NCc1cccc(Cl)c1)C1CCN(C(=O)c2cc(-c3ccncc3)[nH]n2)CC1 [N-[(3-chlorophenyl)methyl]-1-[5-(pyridin-4-yl)-1H-pyrazole-3-carbonyl]piperidine-4-carboxamide],> 1000 nM
2,"COc1cc(-c2cc(C(=O)N3CC[C@@H](C(=O)NC4CC[C@H](C(F)(F)F)N(C)C4)CC34CC4)n[nH]2)c(F)cn1 (mixture of isomers) [(7R)-4-[5-(5-fluoro-2-methoxypyridin-4-yl)-1H-pyrazole-3-carbonyl]-N-[(3RS,6R)-1-methyl-6-(trifluoromethyl)piperidin-3-yl]-4-azaspiro[2.5]octane-7-carboxamide]",> 1000 nM
3,COc1cc(-c2cc(C(=O)N3CCC(C(=O)NCc4cc(F)ccn4)CC3)n[nH]2)c(Cl)cn1 [1-[5-(5-chloro-2-methoxypyridin-4-yl)-1H-pyrazole-3-carbonyl]-N-[(4-fluoropyridin-2-yl)methyl]piperidine-4-carboxamide],> 1000 nM
4,"Cc1cc(CNC(=O)C2CCN(C(=O)c3cc(-c4ccncc4)[nH]n3)CC2)sc1C [N-[(4,5-dimethylthiophen-2-yl)methyl]-1-[5-(pyridin-4-yl)-1H-pyrazole-3-carbonyl]piperidine-4-carboxamide]",> 1000 nM
5,COc1cc(-c2cc(C(=O)N3CCC(C(=O)N[C@H]4CC[C@](O)(C(F)(F)F)CC4)CC3)n[nH]2)c(Cl)cn1,> 1000 nM
6,"COc1cc(-c2cc(C(=O)N3CCC(C(=O)NCc4ccn5c(C)c(C)nc5c4)CC3)n[nH]2)c(Cl)cn1 [1-[5-(5-chloro-2-methoxypyridin-4-yl)-1H-pyrazole-3-carbonyl]-N-({2,3-dimethylimidazo[1,2-a]pyridin-7-yl}methyl)piperidine-4-carboxamide]",> 1000 nM
7,COc1cc(-c2cc(C(=O)N3CCC(CO)(C(=O)NCc4cccc(Cl)c4)CC3)n[nH]2)c(Cl)cn1 [1-[5-(5-chloro-2-methoxypyridin-4-yl)-1H-pyrazole-3-carbonyl]-N-[(3-chlorophenyl)methyl]-4-(hydroxymethyl)piperidine-4-carboxamide],> 1000 nM
8,"COc1cc(F)c(NC(=O)C2CCN(C(=O)c3cc(-c4cc(OC)ncc4Cl)[nH]n3)CC2)c(F)c1 [1-[5-(5-chloro-2-methoxypyridin-4-yl)-1H-pyrazole-3-carbonyl]-N-(2,6-difluoro-4-methoxyphenyl)piperidine-4-carboxamide]",> 1000 nM
9,COc1cc(-c2cc(C(=O)N3CCC(C(=O)NC(C)C4CCC4)CC3)n[nH]2)c(F)cn1 (stereo not shown) [N-(1-cyclobutylethyl)-1-[5-(5-fluoro-2-methoxypyridin-4-yl)-1H-pyrazole-3-carbonyl]piperidine-4-carboxamide],> 1000 nM
10,COc1cc(-c2cc(C(=O)N3CC4COCC(C3)C4C(=O)NCc3cccc(Cl)c3)n[nH]2)c(Cl)cn1 (stereo not shown) [7-[5-(5-chloro-2-methoxypyridin-4-yl)-1H-pyrazole-3-carbonyl]-N-[(3-chlorophenyl)methyl]-3-oxa-7-azabicyclo[3.3.1]nonane-9-carboxamide],> 1000 nM
11,COc1ccc(NC(=O)C2CCN(C(=O)c3cc(-c4ccncc4)[nH]n3)CC2)c(C)c1 [N-(4-methoxy-2-methylphenyl)-1-[5-(pyridin-4-yl)-1H-pyrazole-3-carbonyl]piperidine-4-carboxamide],> 1000 nM
12,C[C@H]1CC[C@@H](NC(=O)C2CCN(C(=O)c3cc(-c4ccncc4)[nH]n3)CC2)CC1,> 1000 nM
13,"O=C(c1cc(-c2ccncc2)[nH]n1)N1CCC(C(=O)N2CCc3ccccc3C2)CC1 [2-{1-[5-(pyridin-4-yl)-1H-pyrazole-3-carbonyl]piperidine-4-carbonyl}-1,2,3,4-tetrahydroisoquinoline]",> 1000 nM
14,O=C(Nc1ccccc1)C1CCN(C(=O)c2cc(-c3ccncc3)[nH]n2)CC1 [N-phenyl-1-[5-(pyridin-4-yl)-1H-pyrazole-3-carbonyl]piperidine-4-carboxamide],> 1000 nM
15,COc1cc(-c2cc(C(=O)N3CCC(C(=O)NCc4ccccc4C(F)(F)F)CC3)n[nH]2)c(Cl)cn1 [1-[5-(5-chloro-2-methoxypyridin-4-yl)-1H-pyrazole-3-carbonyl]-N-{[2-(trifluoromethyl)phenyl]methyl}piperidine-4-carboxamide],> 1000 nM

# Further lines, results first:
row,AC50,SMILES
1,> 1000 nM,C[C@@H](NC(=O)C1CCN(C(=O)c2cc(-c3ccncc3)[nH]n2)CC1)c1ccccc1 [N-[(1R)-1-phenylethyl]-1-[5-(pyridin-4-yl)-1H-pyrazole-3-carbonyl]piperidine-4-carboxamide]
2,> 1000 nM,COc1cc(-c2cc(C(=O)N3CCC(C(=O)NC4CCN(C(C)(C)C)CC4)CC3)n[nH]2)c(Cl)cn1 [N-(1-tert-butylpiperidin-4-yl)-1-[5-(5-chloro-2-methoxypyridin-4-yl)-1H-pyrazole-3-carbonyl]piperidine-4-carboxamide]
3,> 1000 nM,C[C@H]1CC[C@H](NC(=O)C2CCN(C(=O)c3cc(-c4cccnc4)n[nH]3)CC2)CC1
4,> 1000 nM,O=C(NC1CCC(c2ccccc2)CC1)C1CCN(C(=O)c2cc(-c3ccncc3)[nH]n2)CC1 (stereo not shown) [N-(4-phenylcyclohexyl)-1-[5-(pyridin-4-yl)-1H-pyrazole-3-carbonyl]piperidine-4-carboxamide]
5,> 1000 nM,CCNC(=O)C1CCN(C(=O)c2cc(-c3ccncc3)[nH]n2)CC1 [N-ethyl-1-[5-(pyridin-4-yl)-1H-pyrazole-3-carbonyl]piperidine-4-carboxamide]
6,> 1000 nM,"COc1cc(-c2cc(C(=O)N3CCC(C(=O)NCc4ccn5ccnc5c4)CC3)n[nH]2)c(Cl)cn1 [1-[5-(5-chloro-2-methoxypyridin-4-yl)-1H-pyrazole-3-carbonyl]-N-({imidazo[1,2-a]pyridin-7-yl}methyl)piperidine-4-carboxamide]"
7,> 1000 nM,COC1CCC(NC(=O)C2CCN(C(=O)c3cc(-c4ccncc4)[nH]n3)CC2)CC1 (stereo not shown) [N-(4-methoxycyclohexyl)-1-[5-(pyridin-4-yl)-1H-pyrazole-3-carbonyl]piperidine-4-carboxamide]
8,> 1000 nM,CC1CCC(NC(=O)C2CCN(C(=O)c3cc(-c4ccnc(C(=O)O)c4)[nH]n3)CC2)CC1 (stereo not shown)
9,> 1000 nM,COc1cc(-c2cc(C(=O)N3CCC(C(=O)NC45CCC(O)(CC4)CC5)CC3)n[nH]2)c(Cl)cn1 [1-[5-(5-chloro-2-methoxypyridin-4-yl)-1H-pyrazole-3-carbonyl]-N-{4-hydroxybicyclo[2.2.2]octan-1-yl}piperidine-4-carboxamide]
10,> 1000 nM,COc1cc(-c2cc(C(=O)N3CCC(C(=O)NCc4cn(C)cn4)CC3)n[nH]2)c(Cl)cn1 [1-[5-(5-chloro-2-methoxypyridin-4-yl)-1H-pyrazole-3-carbonyl]-N-[(1-methyl-1H-imidazol-4-yl)methyl]piperidine-4-carboxamide]
11,> 1000 nM,COc1cc(-c2cc(C(=O)N3CCC(C(=O)NCc4nccn4C)CC3)n[nH]2)c(Cl)cn1 [1-[5-(5-chloro-2-methoxypyridin-4-yl)-1H-pyrazole-3-carbonyl]-N-[(1-methyl-1H-imidazol-2-yl)methyl]piperidine-4-carboxamide]
12,> 1000 nM,"CN(C)[C@H]1CCN(C(=O)C2CCN(C(=O)c3cc(-c4ccncc4)[nH]n3)CC2)C1 [(3S)—N,N-dimethyl-1-{1-[5-(pyridin-4-yl)-1H-pyrazole-3-carbonyl]piperidine-4-carbonyl}pyrrolidin-3-amine]"
13,> 1000 nM,COc1cc(-c2cc(C(=O)N3CCC(C(=O)NC4CCN(C(C)=O)C4)CC3)n[nH]2)c(Cl)cn1 (stereo not shown) [N-(1-acetylpyrrolidin-3-yl)-1-[5-(5-chloro-2-methoxypyridin-4-yl)-1H-pyrazole-3-carbonyl]piperidine-4-carboxamide]
14,> 1000 nM,COc1cc(-c2cc(C(=O)N3CCC(C(=O)NC45COC(C)(C4)C5)CC3)n[nH]2)c(Cl)cn1
15,> 1000 nM,CC[C@H](NC(=O)C1CCN(C(=O)c2cc(-c3ccncc3)[nH]n2)CC1)c1ccccc1 [N-[(1S)-1-phenylpropyl]-1-[5-(pyridin-4-yl)-1H-pyrazole-3-carbonyl]piperidine-4-carboxamide]
16,> 1000 nM,COc1cc(-c2cc(C(=O)N3CCC[C@H](C(=O)NCc4cccc(Cl)c4)C3)n[nH]2)c(F)cn1 [(3S)—N-[(3-chlorophenyl)methyl]-1-[5-(5-fluoro-2-methoxypyridin-4-yl)-1H-pyrazole-3-carbonyl]piperidine-3-carboxamide]
17,> 1000 nM,COc1cc(-c2cc(C(=O)N3CCC(C(=O)NC(C)C4COC4)CC3)n[nH]2)c(Cl)cn1 (stereo not shown) [1-[5-(5-chloro-2-methoxypyridin-4-yl)-1H-pyrazole-3-carbonyl]-N-[1-(oxetan-3-yl)ethyl]piperidine-4-carboxamide]
18,> 1000 nM,"COc1cc(-c2cc(C(=O)N3CCC(C(=O)N[C@@H]4CCOc5c(F)ccc(F)c54)CC3)n[nH]2)c(Cl)cn1 [1-[5-(5-chloro-2-methoxypyridin-4-yl)-1H-pyrazole-3-carbonyl]-N-[(4R)-5,8-difluoro-3,4-dihydro-2H-1-benzopyran-4-yl]piperidine-4-carboxamide]"
